pEC50, pIC50: −log10 of the molar value.

The subject of series [1] is BV-2. The series can be described thus: Antiinflammatory activity in LPS induced mouse BV-2 cells assessed as NO production at 10 uM by Griess reagent based assay relative to control. A general note: Griess reagent forms a coloured azo dye with nitrite.
For series [2], the system named is BV-2. The series can be described thus: Antiinflammatory activity in LPS induced mouse BV-2 cells assessed as inhibition of NO production by Griess reagent based assay. It counts as functional, cell-based.
For series [3], the system named is BV-2. Description: Antiinflammatory activity in LPS induced mouse BV-2 cells assessed as NO production at 1 uM by Griess reagent based assay relative to control.
Series [4] is described as follows: Cytotoxicity against mouse BV-2 cells assessed as cell viability at 10 uM by MTT assay relative to control. It counts as toxicity, cell-based. Particulars: read-out: Activity. Background: Tetrazolium assays rely on reduction of a dye to a coloured formazan, in cell work by metabolically active cells.
A short description of series [5]: Cytotoxicity against mouse BV-2 cells assessed as cell viability at 1 uM by MTT assay relative to control. Particulars: read-out: Activity. It counts as toxicity, cell-based.
Series [6] concerns BV-2. The series can be described thus: Antiinflammatory activity in LPS-induced mouse BV-2 cells assessed as reduction in NO release relative to control. It counts as functional. Also noted: scale not given: the % may be the effect or the level left.
The next series has as its system RAW264.7. The series can be described thus: Antiinflammatory activity in LPS-induced mouse RAW264.7 cells assessed as inhibition of NO production. It counts as functional, cell-based.
The subject of series [7] is Human immunodeficiency virus 1. The series can be described thus: Antiviral activity against HIV-1 infected in human C8166 cells assessed as inhibition of virus-induced cytopathic effect. Type of series: functional, organism-based. Particulars: Human immunodeficiency virus 1, C8166. Background: Damage to the host cells serves as the signal in cytopathic effect assays.

The test system of series [8] is Human immunodeficiency virus 1. The series can be described thus: Antiviral activity against HIV-1. It counts as functional, organism-based.

For the compound `COc1c2n(cc(C(=O)Nc3cccc(-c4cn(-c5c(C)cc(C)cc5C)nn4)c3)c1=O)C[C@@H]1OCC[C@@H](C)N1C2=O`, in the series on BV-2 [1], the level, % of control at 10 µM came to 46%. The pIC50 (commonly the negative decadic logarithm of the IC50, by convention in mol/L) in the series with BV-2 [2] is 5.01. Besides, the level, % of control at 1 µM in the series with BV-2 [3] was determined as 85.1%. For the same compound, the viability at 10 µM in [4] stood at 96.7%. In addition, the viability at 1 µM in series [5] is 102%.
For `COc1ccccc1-n1cc(-c2cccc(NC(=O)c3cn4c(c(OC)c3=O)C(=O)N3[C@H](C)CCO[C@H]3C4)c2)nn1`, in that order: 48.6%, 4.96, 76%, 76.8% and 109%.
`CC(=O)Oc1ccc2c(=O)c(-c3ccc(-n4cc(-c5ccc6c(c5)C(=O)N5CCCC5C(=O)N6)nn4)cc3)coc2c1` (configuration not stated): the Activity in the series on BV-2 [6] is on record as 64.28%.
For `C=CC(C)(C)c1cc2cc([C@@H](O)[C@@H](O)C(C)(C)O)c(O)cc2oc1=O`, the pIC50 with RAW264.7 is more than 5.00. Also, in [7], the negative logarithm of the EC50 (pEC50) – broadly, the negative decadic logarithm of the EC50, by convention in mol/L – was more than 5.00.
As to `Cc1ccc([C@@](C)(O)CC[C@@H](O)C(C)(C)O)cc1`, the pIC50 in the series with RAW264.7 is more than 5.00. Besides, the pEC50 in series [8] was more than 5.00.
For the compound `COc1ccccc1-n1cc(-c2cccc(NC(=O)c3cn4c(c(OC)c3=O)C(=O)N3[C@@H](C)CO[C@@H]3C4)c2)nn1`, the level, % of control at 10 µM in the series with BV-2 [1] is 68%. For the same compound, the level, % of control at 1 µM with BV-2 [3] stood at 96.5%. Also, in series [4], the viability at 10 µM was determined as 50.4%. The viability at 1 µM in [5] came out at 94.1%.
For `COc1c2n(cc(C(=O)Nc3ccccc3-c3cn(-c4c(C)cc(C)cc4C)nn3)c1=O)C[C@@H]1OCC[C@@H](C)N1C2=O`, in that order: 59.1%, 81.4%, 113% and 107%.
In the case of `COc1c2n(cc(C(=O)Nc3ccccc3-c3cn(-c4ccccc4Cl)nn3)c1=O)C[C@@H]1OCC[C@@H](C)N1C2=O`, the level, % of control at 10 µM in the series with BV-2 [1] was found to be 65.9%. The level, % of control at 1 µM with BV-2 [3] was 92.4%. Moreover, the viability at 10 µM in [4] came out at 98.3%. For the same compound, the viability at 1 µM in series [5] worked out at 97.9%.
For `COc1c2n(cc(C(=O)Nc3ccc(-c4cn(-c5ccc(C(F)(F)F)cc5)nn4)cc3)c1=O)C[C@@H]1OCC[C@@H](C)N1C2=O`, in that order: 76.2%, 77.9%, 45.2% and 53.1%.
As to `COc1c2n(cc(C(=O)Nc3cccc(-c4cn(-c5cc(C(F)(F)F)ccc5C(F)(F)F)nn4)c3)c1=O)C[C@H]1OC[C@H](C)N1C2=O`, in the series on BV-2 [1], the level, % of control at 10 µM turned out to be 109%. Also, the level, % of control at 1 µM in the series with BV-2 [3] turned out to be 118%. Moreover, the viability at 10 µM in series [4] worked out at 71.1%. The viability at 1 µM in series [5] worked out at 91.9%.
For `COc1c2n(cc(C(=O)Nc3cccc(-c4cn(-c5ccccc5)nn4)c3)c1=O)C[C@H]1OC[C@H](C)N1C2=O`, in that order: 132%, 127%, 65.6% and 111%.
For `COc1c2n(cc(C(=O)Nc3cccc(-c4cn(-c5ccc(C(F)(F)F)cc5)nn4)c3)c1=O)C[C@H]1OC[C@H](C)N1C2=O`, in that order: 101%, 102%, 63.3% and 108%.
For the compound `COc1c2n(cc(C(=O)Nc3cccc(-c4cn(-c5ccccc5I)nn4)c3)c1=O)C[C@H]1OC[C@H](C)N1C2=O`, the level, % of control at 10 µM in the series with BV-2 [1] is 120%. Further, the level, % of control at 1 µM in the series with BV-2 [3] worked out at 143%. For the same compound, the viability at 10 µM in [4] stood at 48.7%. Further, the viability at 1 µM in [5] is 99.8%.
For `COc1c2n(cc(C(=O)Nc3cccc(-c4cn(-c5cc(C(F)(F)F)cc(C(F)(F)F)c5)nn4)c3)c1=O)C[C@@H]1OCC[C@@H](C)N1C2=O`, in that order: 71.1%, 81.6%, 71.3% and 108%.
With `CCc1ccccc1-n1cc(-c2cccc(NC(=O)c3cn4c(c(OC)c3=O)C(=O)N3[C@H](C)CCO[C@H]3C4)c2)nn1`, the level, % of control at 10 µM with BV-2 [1] came to 59.9%. Moreover, in the series with BV-2 [3], the level, % of control at 1 µM turned out to be 94.5%. In addition, the viability at 10 µM in series [4] is 49.8%. Moreover, in series [5], the viability at 1 µM is 101%.
For `COc1c2n(cc(C(=O)Nc3ccc(-c4cn(-c5cc(C(F)(F)F)cc(C(F)(F)F)c5)nn4)cc3)c1=O)C[C@@H]1OCC[C@@H](C)N1C2=O`, in that order: 99.6%, 105%, 71.1% and 105%.
In the same order, the values of `COc1c2n(cc(C(=O)Nc3cccc(-c4cn(-c5ccc(F)cc5)nn4)c3)c1=O)C[C@H]1OC[C@H](C)N1C2=O` are 120%, 129%, 68% and 109%.
For `COc1c2n(cc(C(=O)Nc3ccc(-c4cn(-c5ccccc5C(F)(F)F)nn4)cc3)c1=O)C[C@@H]1OCC[C@@H](C)N1C2=O`, in that order: 91.1%, 109%, 103% and 103%.
As to `COc1c2n(cc(C(=O)Nc3cccc(-c4cn(-c5ccccc5I)nn4)c3)c1=O)C[C@@H]1OCC[C@@H](C)N1C2=O`, the level, % of control at 10 µM in the series on BV-2 [1] is 52.1%. The negative logarithm of the IC50 (pIC50) in the series with BV-2 [2] is 5.30. Also, the level, % of control at 1 µM in the series with BV-2 [3] stood at 78.4%. Besides, the viability at 10 µM in [4] worked out at 89.2%. Also, the viability at 1 µM in [5] is 96.4%.

Values taken from ChEMBL document CHEMBL6153034, “Synthesis of dolutegravir derivatives modified by 1,2,3-triazole structure and their anti-inflammatory activity in LPS-induced BV2 cells” (Bioorg Med Chem Lett, 2025).
